Assay results as given in patent US9198433B2, “Substituted benzene fungicides” (E I DU PONT DE NEMOURS AND COMPANY, priority 2007, dated 2015).
Marks after values point to notes of the source that are not given here.

Key:
Type in all cases: in vivo
[1] = system: Alternaria solani; test: Test H: tomato early blight, preventive spray on tomato seedlings, disease rating
Procedure, shortened: (§1)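 Tomato seedlings sprayed to run-off, as a preventive treatment, with compound suspended in acetone/water (50/50) containing 250 ppm Trem 014 surfactant; 200 ppm equals 500 g/ha. Disease then rated. Values are at 200 ppm unless marked * (40 ppm) or ** (50 ppm).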

[2] = system: Septoria tritici; test: Test D: wheat leaf blotch, preventive spray on wheat seedlings, disease rating
Procedure, shortened: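 Wheat seedlings sprayed to run-off with compound in acetone/water containing 250 ppm Trem 014 (200 ppm ≈ 500 g/ha; some results at 40 or 50 ppm), inoculated next day with Septoria tritici spores. Held 48 h saturated at 24 °C, then 19 days at 20 °C before disease rating.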

[3] = system: Botrytis cinerea; test: Test F: tomato Botrytis, preventive spray on tomato seedlings, disease rating
Procedure, shortened: as §1

[4] = system: Puccinia recondita f. sp. tritici; test: Test B: wheat leaf rust, preventive spray on wheat seedlings, disease rating
Procedure, shortened: (§2)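 Compounds were dissolved in acetone (3% of final volume), then suspended in 50/50 acetone/water with 250 ppm polyhydric alcohol ester surfactant and sprayed to run-off on wheat seedlings. Unless marked otherwise, values are at 200 ppm (equivalent to 500 g/ha); some are at 40 or 50 ppm.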

[5] = system: Erysiphe graminis f. sp. tritici; test: Test A: wheat powdery mildew, preventive spray on wheat seedlings, disease rating
Procedure, shortened: as §2

[6] = system: Septoria nodorum; test: Test C: wheat glume blotch, preventive spray on wheat seedlings, disease rating
Procedure, shortened: as §2

[7] = 200 ppm, 100 = 100% disease control, 0 = no control relative to controls

SMILES | Percentage Disease Control, Test D ([2]; 40 ppm (*)) | Percentage Disease Control, Test B ([4]; 40 ppm (*)) | Percentage Disease Control, Test A ([5]; 40 ppm (*)) | Percentage Disease Control, Test C ([6]; 40 ppm (*)) | Percentage Disease Control, Test H ([1]; 200 ppm) [%] | Percentage Disease Control, Test F ([3]; 200 ppm) [%] | Percentage Disease Control, Test H [1, 7] [%] | Percentage Disease Control, Test D [2, 7] [%] | Percentage Disease Control, Test F [3, 7] [%] | Percentage Disease Control, Test B [4, 7] [%] | Percentage Disease Control, Test A [5, 7] [%] | Percentage Disease Control, Test C [6, 7] [%] | Percentage Disease Control, Test D ([2]; 200 ppm) [%] | Percentage Disease Control, Test A ([5]; 200 ppm) [%] | further results
COC(=O)NCc1cc(-c2ccn(-c3ccc(Cl)cc3)n2)ccc1Cl [Cmpd 74] | 100* % | 100* % | 100* % | 100* % |  |  |  |  |  |  |  |  |  |  | Percentage Disease Control, Test H ([1]; 40 ppm (*)): 99* %; Percentage Disease Control, Test F ([3]; 40 ppm (*)): 51* %
COC(=O)NCc1cc(-n2ccc(-c3cccc(C(F)(F)F)c3)n2)ccc1Cl [Cmpd 119] | 100* % | 100* % | 100* % | 100* % | 57 | 51 |  |  |  |  |  |  |  |  | 
COC(=O)NCc1cc(-c2cn(Cc3ccc(C)cc3)nn2)ccc1Cl [Cmpd 149] |  |  |  |  |  |  | 0 | 99 | 0 | 99 | 0 | 100 |  |  | 
COC(=O)NCc1cc(-c2ccn(-c3nc(OC)ns3)n2)ccc1Cl [Cmpd 92] |  | 97* % |  | 92* % | 15 | 0 |  |  |  |  |  |  | 72 | 82 | 
CCCCCc1cc(-c2ccc(Cl)c(CNC(=O)OC)c2)nn1C [Cmpd 98] |  | 98* % |  | 90* % | 0 | 0 |  |  |  |  |  |  | 98 | 91 | 
COC(=O)NCc1cc(-c2ccnc(-c3csc(C)n3)n2)ccc1Cl [Cmpd 131] |  |  |  |  |  |  | 0 | 13 | 0 | 0 | 0 | 0 |  |  | 
COC(=O)NCc1cc(-c2ccn(-c3nc(-c4ccc(C(F)(F)F)cc4)ns3)n2)ccc1Cl [Cmpd 94] |  |  |  |  | 0 | 0 |  |  |  |  |  |  | 40 | 0 | Percentage Disease Control, Test B ([4]; 200 ppm): 17%; Percentage Disease Control, Test C ([6]; 200 ppm): 0%
COC(=O)NCc1cc(-c2ccnn2-c2ccccc2)ccc1Cl [Cmpd 140] |  |  |  |  |  |  | 0 | 96 | 0 | 32 | 0 | 0 |  |  | 
COC(=O)NCc1cc(-c2cc(-c3ccc(C(C)(C)C)cc3)[nH]n2)ccc1Cl [Cmpd 99] |  |  |  |  | 0 | 98 |  |  |  |  |  |  | 92 | 82 | Percentage Disease Control, Test B ([4]; 200 ppm): 74%; Percentage Disease Control, Test C ([6]; 200 ppm): 0%
COC(=O)NCc1cc(-c2ccn(-c3cc(C(F)(F)F)ccn3)n2)ccc1Cl [Cmpd 86] | 98* % | 100* % | 99* % | 100* % |  |  |  |  |  |  |  |  |  |  | Percentage Disease Control, Test H ([1]; 40 ppm (*)): 9* %; Percentage Disease Control, Test F ([3]; 40 ppm (*)): 0* %
COC(=O)NCc1cc(-c2ncn(-c3ccc(Br)cc3)n2)ccc1Cl [Cmpd 97] | 100* % | 100* % | 98* % | 100* % | 85 | 0 |  |  |  |  |  |  |  |  | 
COC(=O)NCc1cc(-c2c[nH]nn2)ccc1Cl [Cmpd 145] |  |  |  |  |  |  | 15 | 30 | 0 | 0 | 0 | 0 |  |  | 
